Experimental data published in patent US20090304692A1, “TRIAZINE COMPOUNDS AS PI3 KINASE AND MTOR INHIBITORS” (Wyeth, priority 2008, published 2009).
“And” between values parts separate entries of the source, which are not always exact repeats. Identical values can stand only once. Like-named read-outs stand apart in the source and are kept apart here.

How the values were obtained:
PI3K-α = PI3K-α (Homo sapiens, UniProt P42336); assay: PI3K-alpha fluorescence polarization assay
Human mTOR (FLAG-TOR) = Human mTOR (FLAG-TOR) (Homo sapiens, UniProt P42345); assay: mTOR kinase assay (DELFIA format, purified enzyme); assay type: biochemical; details: read-out: IC50 mTOR
[1] = test system: human prostate LNCap tumor cell line; assay: In vitro cell culture growth assay (MTS), LNCap; details: Homo sapiens, LNCaP, 72 h, read-out: IC50 LNCap
PI3K-γ = PI3K-γ (Homo sapiens, UniProt P48736); assay: PI3K-gamma fluorescence polarization assay
PI3K-γ, sequence (P48736 whole entry, species assumed): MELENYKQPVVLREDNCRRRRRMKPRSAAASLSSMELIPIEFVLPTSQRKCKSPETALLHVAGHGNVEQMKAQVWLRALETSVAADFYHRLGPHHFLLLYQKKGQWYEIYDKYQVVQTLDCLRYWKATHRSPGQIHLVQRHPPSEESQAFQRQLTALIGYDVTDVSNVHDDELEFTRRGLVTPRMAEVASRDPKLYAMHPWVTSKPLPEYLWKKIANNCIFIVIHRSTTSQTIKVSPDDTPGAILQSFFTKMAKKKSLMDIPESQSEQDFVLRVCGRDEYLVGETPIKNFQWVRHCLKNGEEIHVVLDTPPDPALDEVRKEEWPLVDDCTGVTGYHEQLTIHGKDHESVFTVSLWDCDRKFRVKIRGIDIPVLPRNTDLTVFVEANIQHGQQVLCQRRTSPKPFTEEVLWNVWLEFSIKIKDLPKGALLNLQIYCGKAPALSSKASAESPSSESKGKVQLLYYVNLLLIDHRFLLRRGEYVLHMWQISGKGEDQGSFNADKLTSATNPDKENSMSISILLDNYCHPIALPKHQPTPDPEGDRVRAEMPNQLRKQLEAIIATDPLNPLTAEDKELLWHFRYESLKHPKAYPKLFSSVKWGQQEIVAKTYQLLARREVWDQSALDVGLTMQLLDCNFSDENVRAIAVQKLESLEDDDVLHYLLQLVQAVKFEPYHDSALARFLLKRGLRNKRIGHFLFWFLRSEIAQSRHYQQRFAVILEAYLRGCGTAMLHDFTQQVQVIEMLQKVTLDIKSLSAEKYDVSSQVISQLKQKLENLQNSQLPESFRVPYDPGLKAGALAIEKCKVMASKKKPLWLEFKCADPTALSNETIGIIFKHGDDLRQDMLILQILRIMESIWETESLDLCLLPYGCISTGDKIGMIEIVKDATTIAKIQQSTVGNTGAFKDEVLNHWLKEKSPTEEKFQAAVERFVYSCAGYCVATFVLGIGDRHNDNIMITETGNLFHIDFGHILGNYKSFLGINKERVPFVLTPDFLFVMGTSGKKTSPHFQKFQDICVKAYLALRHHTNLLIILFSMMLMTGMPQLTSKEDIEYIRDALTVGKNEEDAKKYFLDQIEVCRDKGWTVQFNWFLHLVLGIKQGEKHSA

Human mTOR (FLAG-TOR), sequence (P42345 1360-2549 limits assumed): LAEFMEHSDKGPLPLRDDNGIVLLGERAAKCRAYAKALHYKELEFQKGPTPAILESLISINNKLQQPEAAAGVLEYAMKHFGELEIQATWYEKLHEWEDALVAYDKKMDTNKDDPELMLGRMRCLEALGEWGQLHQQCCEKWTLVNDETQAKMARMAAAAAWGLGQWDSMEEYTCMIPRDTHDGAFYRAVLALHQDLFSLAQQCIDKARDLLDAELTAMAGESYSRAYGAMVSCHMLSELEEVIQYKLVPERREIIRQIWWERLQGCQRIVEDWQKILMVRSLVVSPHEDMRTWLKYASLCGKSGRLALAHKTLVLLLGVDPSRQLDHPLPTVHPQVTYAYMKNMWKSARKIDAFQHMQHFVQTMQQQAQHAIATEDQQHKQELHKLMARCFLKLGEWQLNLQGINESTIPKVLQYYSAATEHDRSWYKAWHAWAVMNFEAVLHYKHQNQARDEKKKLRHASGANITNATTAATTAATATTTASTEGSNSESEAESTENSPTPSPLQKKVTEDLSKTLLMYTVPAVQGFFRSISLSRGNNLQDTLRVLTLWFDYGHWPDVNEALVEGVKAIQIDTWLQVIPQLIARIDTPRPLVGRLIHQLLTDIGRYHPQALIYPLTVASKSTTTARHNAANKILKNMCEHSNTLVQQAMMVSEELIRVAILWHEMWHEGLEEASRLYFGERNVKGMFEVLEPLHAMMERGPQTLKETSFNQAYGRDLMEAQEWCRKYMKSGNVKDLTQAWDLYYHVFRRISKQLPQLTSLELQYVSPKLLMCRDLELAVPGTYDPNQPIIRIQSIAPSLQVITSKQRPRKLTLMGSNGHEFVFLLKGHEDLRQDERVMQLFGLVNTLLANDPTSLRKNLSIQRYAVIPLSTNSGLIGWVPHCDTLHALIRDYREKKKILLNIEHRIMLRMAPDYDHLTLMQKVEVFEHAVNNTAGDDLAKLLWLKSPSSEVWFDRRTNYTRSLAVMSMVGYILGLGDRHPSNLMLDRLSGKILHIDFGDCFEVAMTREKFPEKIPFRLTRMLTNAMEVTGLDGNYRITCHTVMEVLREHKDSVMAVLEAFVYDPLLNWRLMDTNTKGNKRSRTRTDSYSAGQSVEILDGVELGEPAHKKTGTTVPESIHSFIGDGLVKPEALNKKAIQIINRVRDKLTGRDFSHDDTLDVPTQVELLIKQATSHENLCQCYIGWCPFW
PI3K-α, sequence (P42336 whole entry, species assumed): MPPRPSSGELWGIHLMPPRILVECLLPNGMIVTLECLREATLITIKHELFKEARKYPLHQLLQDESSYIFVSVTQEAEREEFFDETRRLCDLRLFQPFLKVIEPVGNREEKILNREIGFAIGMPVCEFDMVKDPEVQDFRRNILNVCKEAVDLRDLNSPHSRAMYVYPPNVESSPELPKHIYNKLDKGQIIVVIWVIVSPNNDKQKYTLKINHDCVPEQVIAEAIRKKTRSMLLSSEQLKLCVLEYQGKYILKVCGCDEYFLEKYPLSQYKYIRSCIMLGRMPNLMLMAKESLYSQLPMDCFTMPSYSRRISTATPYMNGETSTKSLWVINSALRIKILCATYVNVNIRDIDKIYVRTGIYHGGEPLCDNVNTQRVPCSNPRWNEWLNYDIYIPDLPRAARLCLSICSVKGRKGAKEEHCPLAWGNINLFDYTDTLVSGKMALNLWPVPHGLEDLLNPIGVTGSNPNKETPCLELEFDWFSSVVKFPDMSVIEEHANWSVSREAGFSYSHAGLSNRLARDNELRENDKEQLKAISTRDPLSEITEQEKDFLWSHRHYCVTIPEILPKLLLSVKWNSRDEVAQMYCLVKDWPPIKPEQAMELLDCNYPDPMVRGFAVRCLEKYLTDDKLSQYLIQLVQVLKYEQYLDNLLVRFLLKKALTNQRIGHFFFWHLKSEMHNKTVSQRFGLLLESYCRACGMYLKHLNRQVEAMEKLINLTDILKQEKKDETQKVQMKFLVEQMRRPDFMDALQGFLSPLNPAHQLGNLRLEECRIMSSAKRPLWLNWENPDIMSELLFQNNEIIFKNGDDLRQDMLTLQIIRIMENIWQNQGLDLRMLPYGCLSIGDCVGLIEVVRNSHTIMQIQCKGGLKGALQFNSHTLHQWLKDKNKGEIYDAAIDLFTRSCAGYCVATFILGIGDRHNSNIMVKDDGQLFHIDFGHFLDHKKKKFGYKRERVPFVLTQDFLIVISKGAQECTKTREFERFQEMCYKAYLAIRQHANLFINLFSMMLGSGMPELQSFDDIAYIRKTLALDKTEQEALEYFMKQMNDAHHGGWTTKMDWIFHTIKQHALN
PI3K-α, sequence (P27986 whole entry partner, species assumed): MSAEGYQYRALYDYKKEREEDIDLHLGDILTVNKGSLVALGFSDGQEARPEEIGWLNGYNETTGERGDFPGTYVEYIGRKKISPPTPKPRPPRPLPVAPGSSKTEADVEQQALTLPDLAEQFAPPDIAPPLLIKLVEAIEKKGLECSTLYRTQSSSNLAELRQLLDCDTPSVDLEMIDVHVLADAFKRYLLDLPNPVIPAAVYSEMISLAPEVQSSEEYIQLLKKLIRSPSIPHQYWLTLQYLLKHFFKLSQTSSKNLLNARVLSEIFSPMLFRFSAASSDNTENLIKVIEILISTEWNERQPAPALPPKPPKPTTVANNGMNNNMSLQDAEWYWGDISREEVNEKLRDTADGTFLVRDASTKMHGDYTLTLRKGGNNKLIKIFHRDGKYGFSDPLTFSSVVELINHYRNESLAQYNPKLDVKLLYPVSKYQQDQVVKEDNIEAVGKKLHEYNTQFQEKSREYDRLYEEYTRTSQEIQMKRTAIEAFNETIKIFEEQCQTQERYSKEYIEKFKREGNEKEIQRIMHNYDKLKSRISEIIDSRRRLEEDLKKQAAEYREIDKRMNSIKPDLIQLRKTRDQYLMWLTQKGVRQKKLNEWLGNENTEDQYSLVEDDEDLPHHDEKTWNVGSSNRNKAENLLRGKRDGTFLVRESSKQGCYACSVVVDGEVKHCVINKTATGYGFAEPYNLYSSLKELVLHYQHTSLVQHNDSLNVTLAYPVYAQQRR

SMILES	IC50 (PI3K-α; read-out: IC50 PI3Kα) [nM]	IC50 (Human mTOR (FLAG-TOR))	IC50 [1] [nM]	IC50 (PI3K-γ; read-out: IC50 PI3Kγ) [nM]	IC50 (PI3K-α) [nM]	IC50 (PI3K-γ) [nM]
O=C(Nc1ccncc1)Nc1ccc(-c2nc(N3CCN(Cc4cccnc4)CC3)nc(N3CC4CCC(C3)O4)n2)cc1 [Example 110, 1-(4-{4-(8-oxa-3-azabicyclo[3.2.1]oct-3-yl)-6-[4-(pyridin-3-ylmethyl)piperazin-1-yl]-1,3,5-triazin-2-yl}phenyl)-3-pyridin-4-ylurea]	884	29 nM	220	3510		
O=C(Nc1ccccc1)Nc1ccc(-c2nc(Nc3ccc(N4CCNCC4)cc3)nc(N3CC4CCC(C3)O4)n2)cc1 [Example 330, 1-(4-{4-(8-oxa-3-azabicyclo[3.2.1]oct-3-yl)-6-[(4-piperazin-1-ylphenyl)amino]-1,3,5-triazin-2-yl}phenyl)-3-phenylurea]	42	3.3 nM and 3.4 nM	260	827		
CCNC(=O)Nc1ccc(-c2nc(NC3CCNCC3)nc(N3C4CCC3COC4)n2)cc1 [Example 360, 1-(4-(4-(3-oxa-8-azabicyclo[3.2.1]octan-8-yl)-6-(piperidin-4-ylamino)-1,3,5-triazin-2-yl)phenyl)-3-ethylurea]	6670	82 nM	10000			> 10000
CC(C)(C)Nc1nc(-c2ccc(NC(=O)Nc3cccnc3)cc2)nc(N2CC3CCC(C2)O3)n1 [Example 262, 1-{4-[4-(tert-butylamino)-6-(8-oxa-3-azabicyclo[3.2.1]oct-3-yl)-1,3,5-triazin-2-yl]phenyl}-3-pyridin-3-ylurea]	105	0.29 nM	22	954		
CC(C)Nc1nc(-c2ccc(NC(=O)Nc3cccnc3)cc2)nc(N2C3CCC2COC3)n1 [Example 376, 1-(4-(4-(3-oxa-8-azabicyclo[3.2.1]octan-8-yl)-6-(isopropylamino)-1,3,5-triazin-2-yl)phenyl)-3-(pyridin-3-yl)urea]	2600	2.3 nM	50			> 10000
C[C@@H]1COCCN1c1nc(-c2ccc(NC(=O)Nc3ccc(N4CCN(C5CC5)CC4)cc3)cc2)nc(N2C3CCC2COC3)n1 [Example 442, 1-(4-(4-(3-oxa-8-azabicyclo[3.2.1]octan-8-yl)-6-((R)-3-methylmorpholino)-1,3,5-triazin-2-yl)phenyl)-3-(4-(4-cyclopropylpiperazin-1-yl)phenyl)urea]	1760	1.5 nM	13			> 10000
CNC1CCN(c2nc(-c3ccc(NC(=O)Nc4ccncc4)cc3)nc(N3CC4CCC(C3)O4)n2)CC1 [Example 118, 1-(4-{4-[4-(methylamino)piperidin-1-yl]-6-(8-oxa-3-azabicyclo[3.2.1]oct-3-yl)-1,3,5-triazin-2-yl}phenyl)-3-pyridin-4-ylurea]	379	195 nM	3000	297		
CC(C)Nc1nc(-c2ccc(NC(=O)Nc3ccc(CN)cc3)cc2)nc(N2C3CCC2COC3)n1 [Example 382, 1-(4-(4-(3-oxa-8-azabicyclo[3.2.1]octan-8-yl)-6-(isopropylamino)-1,3,5-triazin-2-yl)phenyl)-3-(4-(aminomethyl)phenyl)urea]	522	4.5 nM	48	4310		
O=C(Nc1ccc(CN2CCCC2)cc1)Nc1ccc(-c2nc(N3C4CCC3COC4)nc(N3C4CCC3COC4)n2)cc1 [Example 369, 1-(4-(4,6-di(3-oxa-8-azabicyclo[3.2.1]octan-8-yl)-1,3,5-triazin-2-yl)phenyl)-3-(4-(pyrrolidin-1-ylmethyl)phenyl)urea]	362	1.3 nM	3	2560		
O=C(Nc1ccc(-c2nc(NCC3CCNCC3)nc(N3CC4CCC(C3)O4)n2)cc1)Nc1cccnc1 [Example 169, 1-(4-{4-(8-oxa-3-azabicyclo[3.2.1]oct-3-yl)-6-[(piperidin-4-ylmethyl)amino]-1,3,5-triazin-2-yl}phenyl)-3-pyridin-3-ylurea]	408	8.3 nM	5000	7960		
NCCNc1ccc(NC(=O)Nc2ccc(-c3nc(N4C5CCC4COC5)nc(N4C5CCC4COC5)n3)cc2)cc1 [Example 461, 1-(4-(2-aminoethylamino)phenyl)-3-(4-(4,6-di(3-oxa-8-azabicyclo[3.2.1]octan-8-yl)-1,3,5-triazin-2-yl)phenyl)urea]	482	1.1 nM	68	4420		

Second part, led by results:

IC50 (PI3K-α; read-out: IC50 PI3Kα) [nM]	IC50 (Human mTOR (FLAG-TOR))	IC50 [1] [nM]	IC50 (PI3K-γ; read-out: IC50 PI3Kγ) [nM]	IC50 (PI3K-α) [nM]	SMILES	IC50 (PI3K-γ) [nM]
187	1.2 nM	30	3160		CC(C)Nc1nc(-c2ccc(NC(=O)Nc3ccncc3)cc2)nc(N2CC3CCC(C2)O3)n1 [Example 215, 1-(4-{4-[(1-methylethyl)amino]-6-(8-oxa-3-azabicyclo[3.2.1]oct-3-yl)-1,3,5-triazin-2-yl}phenyl)-3-pyridin-4-ylurea]	
889	80 nM	32000	1400		NCCNc1nc(-c2ccc(NC(=O)Nc3cccnc3)cc2)nc(N2CC3CCC(C2)O3)n1 [Example 149, 1-(4-{4-[(2-aminoethyl)amino]-6-(8-oxa-3-azabicyclo[3.2.1]oct-3-yl)-1,3,5-triazin-2-yl}phenyl)-3-pyridin-3-ylurea]	
5840	1.6 nM	600	4120		CNC(=O)Nc1ccc(-c2nc(OC(COC)COC)nc(N3CC4CCC(C3)O4)n2)cc1 [Example 177, 1-(4-{4-[2-methoxy-1-(methoxymethyl)ethoxy]-6-(8-oxa-3-azabicyclo[3.2.1]oct-3-yl)-1,3,5-triazin-2-yl}phenyl)-3-methylurea]	
1240	140 nM	2800	7530		CCNC1CCN(c2nc(-c3ccc(NC(=O)Nc4ccncc4)cc3)nc(N3CC4CCC(C3)O4)n2)CC1 [Example 119, 1-(4-{4-[4-(ethylamino)piperidin-1-yl]-6-(8-oxa-3-azabicyclo[3.2.1]oct-3-yl)-1,3,5-triazin-2-yl}phenyl)-3-pyridin-4-ylurea]	
177	83 nM	700	3000		O=C(Nc1ccncc1)Nc1ccc(-c2nc(N3CCC(NCc4ccccc4)CC3)nc(N3CC4CCC(C3)O4)n2)cc1 [Example 117, 1-(4-{4-[4-(benzylamino)piperidin-1-yl]-6-(8-oxa-3-azabicyclo[3.2.1]oct-3-yl)-1,3,5-triazin-2-yl}phenyl)-3-pyridin-4-ylurea]	
969	6.9 nM	120	5450		C[C@@H]1COCCN1c1nc(-c2ccc(NC(=O)Nc3ccc(CN4CCCC4)cc3)cc2)nc(N2C[C@@H]3C[C@H]2CO3)n1 [Example 414, 1-(4-(4-((1S,4S)-2-oxa-5-azabicyclo[2.2.1]heptan-5-yl)-6-((R)-3-methylmorpholino)-1,3,5-triazin-2-yl)phenyl)-3-(4-(pyrrolidin-1-ylmethyl)phenyl)urea]	
414	0.72 nM	1	1570		C[C@@H]1COCCN1c1nc(-c2ccc(NC(=O)Nc3ccc(N4CCN(C)CC4)cc3)cc2)nc(C2CCOCC2)n1 [Example 421, (R)-1-(4-(4-(3-methylmorpholino)-6-(tetrahydro-2H-pyran-4-yl)-1,3,5-triazin-2-yl)phenyl)-3-(4-(4-methylpiperazin-1-yl)phenyl)urea]	
580	1.3 nM	7	1420		C[C@@H]1COCCN1c1nc(-c2ccc(NC(=O)Nc3ccc(OCCN(C)C)cc3)cc2)nc(C2CCOCC2)n1 [Example 427, (R)-1-(4-(2-(dimethylamino)ethoxy)phenyl)-3-(4-(4-(3-methylmorpholino)-6-(tetrahydro-2H-pyran-4-yl)-1,3,5-triazin-2-yl)phenyl)urea]	
	14 nM	850		> 10000	COCC(COC)Oc1nc(-c2ccc(NC(=O)NC3CC3)cc2)nc(N2CC3CCC(C2)O3)n1 [Example 178, 1-cyclopropyl-3-(4-{4-[2-methoxy-1-(methoxymethyl)ethoxy]-6-(8-oxa-3-azabicyclo[3.2.1]oct-3-yl)-1,3,5-triazin-2-yl}phenyl)urea]	> 10000
417	0.9 nM	380	4730		C[C@H](CO)Nc1nc(-c2ccc(NC(=O)Nc3cccnc3)cc2)nc(N2CC3CCC(C2)O3)n1 [Example 260, 1-{4-[4-{[(1R)-2-hydroxy-1-methylethyl]amino}-6-(8-oxa-3-azabicyclo[3.2.1]oct-3-yl)-1,3,5-triazin-2-yl]phenyl}-3-pyridin-3-ylurea]	
109	3.2 nM	200	2000		O=C1CCN(c2nc(-c3ccc(NC(=O)Nc4ccncc4)cc3)nc(N3CC4CCC(C3)O4)n2)CC1 [Example 115, 1-(4-(4-(8-oxa-3-azabicyclo[3.2.1]octan-3-yl)-6-(4-oxopiperidin-1-yl)-1,3,5-triazin-2-yl)phenyl)-3-(pyridin-4-yl)urea]	
300	1.2 nM	5200	9500		CN1CCN(c2nc(-c3ccc(NC(=O)Nc4cccnc4)cc3)nc(N3CC4CCC(C3)O4)n2)C1 [Example 171, 1-{4-[4-(3-methylimidazolidin-1-yl)-6-(8-oxa-3-azabicyclo[3.2.1]oct-3-yl)-1,3,5-triazin-2-yl]phenyl}-3-pyridin-3-ylurea]	
526	14 nM	8500	11000		O=C(Nc1ccc(-c2nc(OCC3CCNCC3)nc(N3CC4CCC(C3)O4)n2)cc1)Nc1cccnc1 [Example 183, 1-{4-[4-(8-oxa-3-azabicyclo[3.2.1]oct-3-yl)-6-(piperidin-4-ylmethoxy)-1,3,5-triazin-2-yl]phenyl}-3-pyridin-3-ylurea]	
